Measurements reported in ChEMBL document CHEMBL1147193, “New 5-substituted thiazolo[3,2-b][1,2,4]triazol-6-ones: synthesis and anticancer evaluation” (2007).

Tests used:
Assay type in all cases: functional
[1] = system: K562; assay: Growth inhibition of human K562 cells after 48 hrs by SRB protein assay; settings: K562, 48 h
[2] = system: RXF 393; assay: Growth inhibition of human RXF393 cells after 48 hrs by SRB protein assay; settings: RXF 393, 48 h
[3] = Growth inhibition of human MDA-MB-231/ATCC cells after 48 hrs by SRB protein assay; settings: MDA-MB-231, 48 h
[4] = system: HCT-116; assay: Growth inhibition of human HCT116 cells after 48 hrs by SRB protein assay; settings: HCT-116, 48 h
[5] = Growth inhibition of human MALME 3M cells after 48 hrs by SRB protein assay
[6] = system: EKVX; assay: Growth inhibition of human EKVX cells after 48 hrs by SRB protein assay
[7] = system: NCI/ADR-RES; assay: Growth inhibition of human NCI/ADR-RES cells after 48 hrs by SRB protein assay
[8] = system: NCI-H322M; assay: Growth inhibition of human NCI-H322M cells after 48 hrs by SRB protein assay
[9] = system: SK-MEL-2; assay: Growth inhibition of human SK-MEL-2 cells after 48 hrs by SRB protein assay; settings: SK-MEL-2, 48 h
[10] = system: MCF7; assay: Anticancer activity against human MCF7 cells assessed as growth of cells at 100 uM relative to untreated cells
[11] = system: HOP-62; assay: Growth inhibition of human HOP62 cells after 48 hrs by SRB protein assay; settings: HOP-62, 48 h
[12] = system: HCT-15; assay: Growth inhibition of human HCT15 cells after 48 hrs by SRB protein assay; settings: HCT-15, 48 h
[13] = system: RPMI-8226; assay: Growth inhibition of human RPMI8226 cells after 48 hrs by SRB protein assay; settings: RPMI-8226, 48 h
[14] = system: HOP-92; assay: Growth inhibition of human HOP92 cells after 48 hrs by SRB protein assay; settings: HOP-92, 48 h
[15] = system: IGROV-1; assay: Growth inhibition of human IGROV1 cells after 48 hrs by SRB protein assay; settings: IGROV-1, 48 h
[16] = system: Hs-578T; assay: Growth inhibition of human HS578T cells after 48 hrs by SRB protein assay
[17] = system: UO-31; assay: Growth inhibition of human UO31 cells after 48 hrs by SRB protein assay; settings: UO-31, 48 h
[18] = system: NCI-H460; assay: Growth inhibition of human NCI-H460 cells after 48 hrs by SRB protein assay; settings: NCI-H460, 48 h
[19] = system: OVCAR-8; assay: Growth inhibition of human OVCAR8 cells after 48 hrs by SRB protein assay; settings: OVCAR-8, 48 h
[20] = system: MOLT-4; assay: Growth inhibition of human MOLT4 cells after 48 hrs by SRB protein assay; settings: MOLT-4, 48 h
[21] = system: UACC-257; assay: Growth inhibition of human UACC257 cells after 48 hrs by SRB protein assay; settings: UACC-257, 48 h
[22] = system: NCI-H522; assay: Growth inhibition of human NCI-H522 cells after 48 hrs by SRB protein assay; settings: NCI-H522, 48 h
[23] = system: UACC-62; assay: Growth inhibition of human UACC62 cells after 48 hrs by SRB protein assay; settings: UACC-62, 48 h
[24] = system: MDA-MB-435; assay: Growth inhibition of human MDA-MB-435 cells after 48 hrs by SRB protein assay; settings: MDA-MB-435, 48 h
[25] = system: MCF7; assay: Growth inhibition of human MCF7 cells after 48 hrs by SRB protein assay; settings: MCF7, 48 h
[26] = system: NCI-H226; assay: Growth inhibition of human NCI-H226 cells after 48 hrs by SRB protein assay; settings: NCI-H226, 48 h
[27] = system: TK-10; assay: Growth inhibition of human TK10 cells after 48 hrs by SRB protein assay; settings: TK-10, 48 h
[28] = system: U-251; assay: Growth inhibition of human U251 cells after 48 hrs by SRB protein assay; settings: U-251, 48 h
[29] = system: BT-549; assay: Growth inhibition of human BT549 cells after 48 hrs by SRB protein assay; settings: BT-549, 48 h
[30] = system: COLO 205; assay: Growth inhibition of human COLO205 cells after 48 hrs by SRB protein assay; settings: COLO 205, 48 h
[31] = system: M14; assay: Growth inhibition of human M14 cells after 48 hrs by SRB protein assay; settings: M14, 48 h
[32] = system: OVCAR-5; assay: Growth inhibition of human OVCAR5 cells after 48 hrs by SRB protein assay; settings: OVCAR-5, 48 h
[33] = system: A549; assay: Growth inhibition of human A549/ATCC cells after 48 hrs by SRB protein assay; settings: A549, 48 h
[34] = system: KM12; assay: Growth inhibition of human KM12 cells after 48 hrs by SRB protein assay; settings: KM12, 48 h
[35] = system: SK-OV-3; assay: Growth inhibition of human SK-OV-3 cells after 48 hrs by SRB protein assay; settings: SK-OV-3, 48 h
[36] = system: SK-MEL-5; assay: Growth inhibition of human SK-MEL-5 cells after 48 hrs by SRB protein assay; settings: SK-MEL-5, 48 h
[37] = system: HCC 2998; assay: Growth inhibition of human HCC2998 cells after 48 hrs by SRB protein assay; settings: HCC 2998, 48 h
[38] = system: CCRF-CEM; assay: Growth inhibition of human CCRF-CEM cells after 48 hrs by SRB protein assay
[39] = system: SF-295; assay: Growth inhibition of human SF295 cells after 48 hrs by SRB protein assay; settings: SF-295, 48 h

GI50 [1]: 26.3 µM
GI50 [4]: 15.8 µM
GI50 [8]: > 100 µM
GI50 [9]: 66.1 µM
GI50 [12]: 14.8 µM
GI50 [13]: 23.4 µM
GI50 [18]: > 100 µM
GI50 [19]: 18.2 µM
GI50 [20]: 25.1 µM
GI50 [22]: 20.4 µM
GI50 [24]: 31.6 µM
GI50 [25]: 26.9 µM
GI50 [26]: 20 µM
GI50 [28]: 16.6 µM
GI50 [29]: > 100 µM
GI50 [30]: 17.8 µM
GI50 [32]: 16.2 µM
GI50 [33]: 35.5 µM
GI50 [35]: > 100 µM
GI50 [36]: 18.6 µM
GI50 [37]: > 100 µM
GI50 [38]: 21.4 µM
SMILES: O=C(CC1Sc2ncnn2C1=O)Nc1ccc(Br)cc1 (configuration not stated)
TGI ([1]; read-out: Log TGI (converted)): 79.4 µM
GI50 [2]: 12.9 µM
TGI ([2]; read-out: Log TGI (converted)): 31.6 µM
GI50 [3]: 17 µM
TGI ([3]; read-out: Log TGI (converted)): 36.3 µM
TGI ([4]; read-out: Log TGI (converted)): 29.5 µM
GI50 [5]: 14.5 µM
TGI ([5]; read-out: Log TGI (converted)): 31.6 µM
GI50 [6]: 31.6 µM
TGI ([6]; read-out: Log TGI (converted)): > 100 µM
GI50 [7]: 25.1 µM
TGI ([7]; read-out: Log TGI (converted)): 70.8 µM
TGI ([8]; read-out: Log TGI (converted)): > 100 µM
TGI ([9]; read-out: Log TGI (converted)): > 100 µM
Activity [10]: 0%
GI50 [11]: > 100 µM
TGI ([11]; read-out: Log TGI (converted)): > 100 µM
TGI ([12]; read-out: Log TGI (converted)): 28.2 µM
TGI ([13]; read-out: Log TGI (converted)): 64.6 µM
GI50 [14]: 22.4 µM
TGI ([14]; read-out: Log TGI (converted)): 49 µM
GI50 [15]: 34.7 µM
TGI ([15]; read-out: Log TGI (converted)): > 100 µM
GI50 [16]: 7.24 µM
TGI ([16]; read-out: Log TGI (converted)): 20 µM
GI50 [17]: 18.6 µM
TGI ([17]; read-out: Log TGI (converted)): 38 µM
TGI ([18]; read-out: Log TGI (converted)): > 100 µM
TGI ([19]; read-out: Log TGI (converted)): 38 µM
TGI ([20]; read-out: Log TGI (converted)): 97.7 µM
GI50 [21]: 17.4 µM
TGI ([21]; read-out: Log TGI (converted)): 33.1 µM
TGI ([22]; read-out: Log TGI (converted)): 57.5 µM
GI50 [23]: > 100 µM
TGI ([23]; read-out: Log TGI (converted)): > 100 µM
TGI ([24]; read-out: Log TGI (converted)): > 100 µM
TGI ([25]; read-out: Log TGI (converted)): 74.1 µM
TGI ([26]; read-out: Log TGI (converted)): 45.7 µM
GI50 [27]: 17.4 µM
TGI ([27]; read-out: Log TGI (converted)): 31.6 µM
TGI ([28]; read-out: Log TGI (converted)): 31.6 µM
TGI ([29]; read-out: Log TGI (converted)): > 100 µM
TGI ([30]; read-out: Log TGI (converted)): 37.2 µM
GI50 [31]: 15.8 µM
TGI ([31]; read-out: Log TGI (converted)): 29.5 µM
TGI ([32]; read-out: Log TGI (converted)): 29.5 µM
TGI ([33]; read-out: Log TGI (converted)): > 100 µM
GI50 [34]: > 100 µM
TGI ([34]; read-out: Log TGI (converted)): > 100 µM
TGI ([35]; read-out: Log TGI (converted)): > 100 µM
TGI ([36]; read-out: Log TGI (converted)): 38.9 µM
TGI ([37]; read-out: Log TGI (converted)): > 100 µM
TGI ([38]; read-out: Log TGI (converted)): 55 µM
GI50 [39]: > 100 µM
TGI ([39]; read-out: Log TGI (converted)): > 100 µM
